Molecules are shown by their SMILES.

Data set [1] is described as follows: pKa of corresponding TPA diaqua complexes by potentiometric titration with NaOH. The conditions noted are these: corresponding diaqua complex trans-[Pt(OH2)2(L)(L′)], ambient temperature. In kind it is physicochemical. The method, then: (§1) The aqueous solubility of the acetate compounds and the acid dissociation constants of the corresponding aqua species are given in Table 1. Use of acetates enhances aqueous solubility which is dependent on the exact nature of the donor ligands. The pKa values were determined by potentiometric titration of solutions of trans-[Pt(H2O)2(L)(L′)]^2+ (formed by the dissolution of the isolated trans-[Pt(NO3)2(L)(L′)]) with NaOH. […] (X=2,3,4-Me).^30

Another data set deals with A2780. In words: Growth inhibition in human ovarian cancer cell line panel, 96 h exposure. It counts as cell-based. The protocol:
(§2) It is noteworthy that the acetate compounds maintain cytotoxicity with low resistance factors in all cases. The trans-[Pt(OAc)2(NH3)2] compound is also very water-soluble but the cytotoxicity of >100 μM confirms the requirement for a planar amine to enhance cytotoxicity in the trans geometry.

Another data set concerns CH1. The data set is described as above. It counts as cell-based. The protocol:
as §2

Another data set concerns 41M. Described as above. In kind it is cell-based. The protocol: as §2
The nature of data set [2]: Hydrolysis (first aquation step) followed by HPLC, Example 5. It counts as physicochemical. The settings on record: nanopure water. The method, then:
For hydrolysis studies, […] complex was dissolved in 1 mL of nanopure water. The pH values of the samples were controlled in regular intervals and readjusted if necessary by addition of HNO3 (1 M, 0.1 M, 0.01 M) or NaOH (1 M, 0.1 M, 0.01 M). Aliquots of 20 μL were taken from the bulk solution for HPLC analysis. The overall scheme may be described as follows:
The aquated species were identified by comparison with the hydrolysis profile produced by the corresponding (labile) nitrate compounds. The rate constants for the first aquation step k1 are given in Table 2 and compared with other platinum complexes containing one or two labile ligands. […] In particular, these rates are 2-3 orders of magnitude lower than that of transplatin itself. The rate of aquation tends toward that of carboplatin which in phosphate buffer at 310 K gave a hydrolysis rate of 7.2×10^−7 s^−1 (but in aqueous solution gives a barely measurable rate constant of <5×10^−9 s^−1, which is modulated by the presence of buffer, nucleophile or acid). ^31,32No evidence for formation of Pt(TV) species during hydrolysis is detected under these conditions.^33

Data set [3] in a line: Aqueous solubility of TPA-acetate complexes (sequential addition of water). The settings on record: ambient temperature. In kind it is physicochemical. The method, then:
as §1

A short description of data set [4]: Reaction with N-AcMet followed by 195Pt NMR. The source says: The slow hydrolysis is a unique feature of two carboxylate ligands in a trans-axial position and can be modulated by choice of carboxylate. To examine how this might affect possible reactions with biomolecules, a preliminary study of the reactions of 4e with guanosine-5′-monophosphate (5′-GMP, model for DNA) and N-acetyl-L-methionine (N-AcMet, model for sulfur ligand metabolism) was made by ^195Pt NMR Spectroscopy. In the case of 5′-GMP the peak of the starting material at −1450 ppm is only gradually replaced by a new peak at −2365 ppm. This shift is consistent with the formation of a species that has a PtN4 coordination sphere,^26 due to replacement of both formate groups. Approximately 50% reaction (as judged by the intensity of the ^1H H8 signal and ^195Pt NMR signals), occurred within 24h. For N-AcMet the starting material was approximately 50% of total intensity even after 8 h. […] The chemical shift is consistent with a PtN2O2 coordination sphere—this could arise from displacement of formate by H2O/OH or an O-bound methionine.^27 This species preceded the formation of the N-AcMet product at −3320 ppm consistent with a PtN2S2 coordination sphere, trans-[Pt(NH3)(4-pic)(NAcMet)2],^23,28 which was 40% of the total platinum species after 10 h. […] Whether the possible formation of an O-bound methionine species is a reflection of the low pKal and the electronic effects of a π-acceptor ligand is worthy of further investigation.

Data set [5] can be described thus: Solubility of TPA carboxylates, Example 6. In kind it is physicochemical. The conditions noted are these: aqueous; table title ambient temperature, text 37° C.
Data set [6] is described as follows: Initial hydrolysis of TPA carboxylates monitored by HPLC at 37° C. The conditions noted are these: H2O, I=0.02 M. In kind it is physicochemical. The protocol: The slowest initial hydrolysis rate was found for complex 2c t-[Pt(OAc)2(NH3)(2-pic)], with just 4% hydrolysis occurring after 9 h. The hydrolysis of the formate complex 4f was the fastest, with 24% hydrolysis occurring after 9 h. The hydrolysis rates of the acetate complexes followed the pattern 2c<4c<3c. […] Thus, hydrolysis of the acetate complexes is slowed by an approximate order of magnitude compared to their direct chloro analogs but there is little difference in the present case between 3- and 4-picoline. Steric hindrance therefore predominates over the electronic effects of the methyl group. In the case of the chloride complexes, the 3-pic directs less electron density to the platinum rendering it less nucleophilic relative to the 2-pic and 4-pic. 14 We observe the same trend in the acetate complexes, but the effect is lessened due to the carboxylate group being a weak ligand, with a low trans influence and trans effect.^11

The subject of data set [7] is guanosine-5′-monophosphate (5′-GMP, model for DNA). In words: Reaction with 5′-GMP followed by 195Pt NMR. The conditions noted are these: within 24 h. The text has this:
The slow hydrolysis is a unique feature of two carboxylate ligands in a trans-axial position and can be modulated by choice of carboxylate. To examine how this might affect possible reactions with biomolecules, a preliminary study of the reactions of 4e with guanosine-5′-monophosphate (5′-GMP, model for DNA) and N-acetyl-L-methionine (N-AcMet, model for sulfur ligand metabolism) was made by ^195Pt NMR Spectroscopy. In the case of 5′-GMP the peak of the starting material at −1450 ppm is only gradually replaced by a new peak at −2365 ppm. This shift is consistent with the formation of a species that has a PtN4 coordination sphere,^26 due to replacement of both formate groups. Approximately 50% reaction (as judged by the intensity of the ^1H H8 signal and ^195Pt NMR signals), occurred within 24h. For N-AcMet the starting material was approximately 50% of total intensity even after 8 h. […] The chemical shift is consistent with a PtN2O2 coordination sphere—this could arise from displacement of formate by H2O/OH or an O-bound methionine.^27 This species preceded the formation of the N-AcMet product at −3320 ppm consistent with a PtN2S2 coordination sphere, trans-[Pt(NH3)(4-pic)(NAcMet)2],^23,28 which was 40% of the total platinum species after 10 h. […]

Data set [8] relates to human ovarian cancer cell line A2780. In words: MTT growth inhibition assay. The conditions noted are these: 72 h. In kind it is cell-based. The source says: • (1) Van Beusichem, M.; Farrell, N. Inorg. Chem. 1992, 31, 634-639. • (2) Farrell, N.; Kelland, L. R.; Roberts, J. D.; Van Beusichem, M. Cancer Res. 1992, 52, 5065-5072. • (3) Farrell, N. Cancer Invest. 1993, 11, 578-589. • (4) Coluccia, M.; Nassi, A.; Loseto, F.; Boccarelli, A.; Mariggio, M. A.; Giordano, D.; Intini, F. P.; Caputo, P.; Natile, G. J. Med. Chem. 1993, 36, 510-512. • (5) Khazanov, E.; Barenholz, Y.; Gibson, D.; Najajreh, Y. J. Med. Chem. 2002, 45, 5196-5204. • (6) Najajreh, Y.; Perez, J. M.; Navarro-Ranninger, C.; Gibson, D. J. Med. Chem. 2002, 45, 5189-5195. • (7) Montero, E. I.; Diaz, S.; Gonzalez-Vadillo, A. M.; Perez, J. M.; Alonso, C.; Navarro-Ranninger, C. J. Med. Chem. 1999, 42, 4264-4268. • (8) Natile, G.; Coluccia, M. Coord. Chem. Rev. 2001, 216-217, 383-410. • (9) Fojo, T.; Farrell, N.; Ortuzar, W.; Tanimura, H.; Weinstein, J.; Myers Timothy, G. I Crit. Rev. Oncol./ Hematol. 2005, 53, 25-34. • (10) Murphy, R. F.; Farrell, N.; Aguila, A.; Okada, M.; Balis, F. M.; Fojo, T. Proc. Am. Assoc. […] IC50 values were determined graphically

The mark [9] stands for this setting: RF = (IC50 Resistant)/(IC50 Sensitive).

What is called IC50 is the concentration needed to halve the response being measured. Higher therefore signals lower potency. In general, Solubility refers to the dissolved amount per volume that the medium holds. Lower therefore signals a poorly soluble substance. The molecule `CC(=O)[O-].CC(=O)[O-].N.[Pt+2].c1ccc2cnccc2c1` [trans-[Pt(OAc)2(NH3)(iquin)], trans-[diacetato(ammine)(isoquinoline)platinum(II)]] came in with a pKa1 in data set [1] of 3.78. Besides, in [1], the pKa2 was 6.92. Further, the IC50 was found to be 13 µM with A2780, 20 µM in the data set with CH1 and 22 µM with 41M. The “A2780 RF” value with A2780 (setting [9]) is on record as “(1.69)”. Also, the “CH1 RF” value with CH1 (setting [9]) is “(0.37)”. Besides, the “41M RF” value with 41M (setting [9]) was “(0.26)”. Also, the “k1, rate constant for the first aquation step” value in data set [2] was “(7.4 ± 1.5) × 10^−7 s^−1”. This molecule also returned a Solubility in [3] of 5.2 mg/mL.
Regarding `Cc1ccncc1.N.O=C[O-].O=C[O-].[Pt+2]` [4e, trans-[Pt(OFm)2(NH3)(4-pic)]], the “starting material remaining, of total intensity” value in [4] (after 8 h) is “Approximately 50%”. Further, in data set [4] (after 10 h), the “N-AcMet product at −3320 ppm (PtN2S2), of total platinum species” value was 40%. The “new species at −1775 ppm (PtN2O2), of total reaction product” value in data set [4] (over 10 h) is reported as ≤ 15%. In addition, the “Solubility (mg/mL), TPA Substituted Carboxylates” value in data set [5] is reported as 35 mg/mL. The “k1, initial hydrolysis rate constant” value in [6] was determined as 1.07e-05 s⁻¹. Also, in data set [7], the “reaction with 5′-GMP (by 1H H8 and 195Pt NMR signal intensity)” value is reported as “Approximately 50%”. Besides, in data set [8], the “cytotoxicity (growth inhibition)” value was “most cytotoxic”.

(Values after US8324197B2, “Transplatinum complexes with N2O2 donor sets as cytotoxic and antitumor agents” (Virginia Commonwealth University, priority 2005, dated 2012).)
